Measurements from US20200024278A1, “COMPOSITION COMPRISING ANTIBIOTIC COMPOUND AND AN HETEROCYCLIC COMPOUND AND THEIR USE IN PREVENTING OR TREATING BACTERIAL INFECTIONS” (MUTABILIS, priority 2016, published 2020).

Columns and labels:
Assay in all cases: MIC, broth microdilution (CLSI), substance alone or ATB combined with compound at 4 or 8 μg/mL
[1] = system: ECO 190317; assay type: cell-based, E. coli; conditions: ECO 190317
Method in brief: (§1)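 Potentiation format: antibiotic dilution series run with test compound held at 4 or 8 μg/mL, alongside compound-alone MICs. Broth microdilution per CLSI in ca-MHB, 16-20 h at 35° C.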

[2] = system: ECO UFR39; assay type: cell-based, E. coli; conditions: ECO UFR39
Method in brief: as §1

[3] = system: ECL P99; assay type: cell-based, E. cloacae; conditions: ECL P99
Method in brief: as §1

[4] = system: SPN 49619; assay type: cell-based, S. pneumoniae; conditions: SPN 49619
Method in brief: as §1

[5] = system: KPN UFR42; assay type: cell-based, K. pneumoniae; conditions: KPN UFR42
Method in brief: as §1

[6] = system: KPN BAA-1898; assay type: cell-based, K. pneumoniae; conditions: KPN BAA-1898
Method in brief: as §1

[7] = Escherichia coli, antibiotic alone, read-out: MIC ATB alone

NCC[C@H](O)C(=O)N[C@@H]1C[C@H](N)[C@@H](O[C@H]2O[C@H](CN)[C@@H](O)[C@H](O)[C@H]2O)[C@H](O)[C@H]1O[C@H]1O[C@H](CO)[C@@H](O)[C@H](N)[C@H]1O [AN, Amikacin, reference compound]
MIC ATB combined with Example 1 @8 μg/ml ([1]; with Example 1 @8 μg/ml): <0.031 mg/L | MIC ATB combined with Example 1 @8 μg/ml ([1]; with Example 1 at 8 μg/ml): <0.031 mg/L | MIC ATB combined with Example 7 @8 μgml ([1]; with Example 7 at 8 μg/ml): <0.031 mg/L | MIC ATB combined with Example 9 @4 μg/ml ([1]; with Example 9 @4 μg/ml): <0.031 mg/L | MIC ATB combined with Example 9 @4 μg/ml ([1]; with Example 9 at 4 μg/ml): <0.031 mg/L | MIC ATB combined with Example 11 @8 μg/ml ([1]; with Example 11 at 8 μg/ml): <0.031 mg/L | MIC ATB combined with Example 12 @8 μg/ml ([1]; with Example 12 at 8 μg/ml): <0.031 mg/L | MIC ATB combined with Example 13 @8 μg/ml ([1]; with Example 13 at 8 μg/ml): <0.031 mg/L | MIC ATB combined with Example 14 @8 μg/ml ([1]; with Example 14 at 8 μg/ml): <0.031 mg/L | MIC ATB combined with Example 15 @4 μgml ([1]; with Example 15 at 4 μg/ml): <0.031 mg/L | MIC ATB combined with Example 16 @4 μg/ml ([1]; with Example 16 at 4 μg/ml): <0.031 mg/L | MIC [1, 7]: 8 mg/L | MIC ATB combined with Example 1 @8 μg/ml ([2]; with Example 1 @8 μg/ml): <=0.031 μg/mL | MIC ATB combined with Example 1 @8 μg/ml ([2]; with Example 1 at 8 μg/ml): <=0.031 μg/mL | MIC ATB combined with Example 7 @8 μgml ([2]; with Example 7 at 8 μg/ml): <0.031 mg/L | MIC ATB combined with Example 9 @4 μg/ml ([2]; with Example 9 @4 μg/ml): <0.031 mg/L | MIC ATB combined with Example 9 @4 μg/ml ([2]; with Example 9 at 4 μg/ml): <0.031 mg/L | MIC ATB combined with Example 11 @8 μg/ml ([2]; with Example 11 at 8 μg/ml): <0.031 mg/L | MIC ATB combined with Example 12 @8 μg/ml ([2]; with Example 12 at 8 μg/ml): <0.031 mg/L | MIC ATB combined with Example 13 @8 μg/ml ([2]; with Example 13 at 8 μg/ml): 0.063 mg/L | MIC ATB combined with Example 14 @8 μg/ml ([2]; with Example 14 at 8 μg/ml): <0.031 mg/L | MIC ATB combined with Example 15 @4 μgml ([2]; with Example 15 at 4 μg/ml): <0.031 mg/L | MIC ATB combined with Example 16 @4 μg/ml ([2]; with Example 16 at 4 μg/ml): <0.031 mg/L | MIC [2, 7]: > 32 mg/L | MIC ATB combined with Example 1 @8 μg/ml ([3]; with Example 1 @8 μg/ml): <0.031 mg/L | MIC ATB combined with Example 1 @8 μg/ml ([3]; with Example 1 at 8 μg/ml): <0.031 mg/L | MIC ATB combined with Example 7 @8 μgml ([3]; with Example 7 at 8 μg/ml): 0.063 mg/L | MIC ATB combined with Example 9 @4 μg/ml ([3]; with Example 9 @4 μg/ml): <0.031 mg/L | MIC ATB combined with Example 9 @4 μg/ml ([3]; with Example 9 at 4 μg/ml): <0.031 mg/L | MIC ATB combined with Example 11 @8 μg/ml ([3]; with Example 11 at 8 μg/ml): <0.031 mg/L | MIC ATB combined with Example 12 @8 μg/ml ([3]; with Example 12 at 8 μg/ml): <0.031 mg/L | MIC ATB combined with Example 13 @8 μg/ml ([3]; with Example 13 at 8 μg/ml): 0.125 mg/L | MIC ATB combined with Example 14 @8 μg/ml ([3]; with Example 14 at 8 μg/ml): <0.031 mg/L | MIC ATB combined with Example 15 @4 μgml ([3]; with Example 15 at 4 μg/ml): <=0.031 μg/mL | MIC ATB combined with Example 16 @4 μg/ml ([3]; with Example 16 at 4 μg/ml): <0.031 mg/L | MIC ([3]; Enterobacter cloacae, antibiotic alone, read-out: MIC ATB alone): 0.063 mg/L | MIC ATB combined with Example 1 @8 μg/ml ([4]; with Example 1 @8 μg/ml): 32 mg/L | MIC ATB combined with Example 1 @8 μg/ml ([4]; with Example 1 at 8 μg/ml): 32 mg/L | MIC ATB combined with Example 7 @8 μgml ([4]; with Example 7 at 8 μg/ml): >32 mg/L | MIC ATB combined with Example 9 @4 μg/ml ([4]; with Example 9 @4 μg/ml): <0.031 mg/L | MIC ATB combined with Example 9 @4 μg/ml ([4]; with Example 9 at 4 μg/ml): <0.031 mg/L | MIC ATB combined with Example 11 @8 μg/ml ([4]; with Example 11 at 8 μg/ml): 32 mg/L | MIC ATB combined with Example 12 @8 μg/ml ([4]; with Example 12 at 8 μg/ml): 4 mg/L | MIC ATB combined with Example 13 @8 μg/ml ([4]; with Example 13 at 8 μg/ml): >32 mg/L | MIC ATB combined with Example 14 @8 μg/ml ([4]; with Example 14 at 8 μg/ml): 4 mg/L | MIC ATB combined with Example 15 @4 μgml ([4]; with Example 15 at 4 μg/ml): 32 mg/L | MIC ATB combined with Example 16 @4 μg/ml ([4]; with Example 16 at 4 μg/ml): 16 mg/L | MIC ([4]; Streptococcus pneumoniae, antibiotic alone, read-out: MIC ATB alone): 32 mg/L | MIC ATB combined with Example 1 @8 μg/ml ([5]; with Example 1 @8 μg/ml): >32 mg/L | MIC ATB combined with Example 1 @8 μg/ml ([5]; with Example 1 at 8 μg/ml): >32 mg/L | MIC ATB combined with Example 7 @8 μgml ([5]; with Example 7 at 8 μg/ml): >32 mg/L | MIC ATB combined with Example 9 @4 μg/ml ([5]; with Example 9 @4 μg/ml): >32 mg/L | MIC ATB combined with Example 9 @4 μg/ml ([5]; with Example 9 at 4 μg/ml): >32 mg/L | MIC ATB combined with Example 11 @8 μg/ml ([5]; with Example 11 at 8 μg/ml): 0.25 mg/L | MIC ATB combined with Example 12 @8 μg/ml ([5]; with Example 12 at 8 μg/ml): <0.031 mg/L | MIC ATB combined with Example 13 @8 μg/ml ([5]; with Example 13 at 8 μg/ml): >32 mg/L | MIC ATB combined with Example 14 @8 μg/ml ([5]; with Example 14 at 8 μg/ml): <0.031 mg/L | MIC ATB combined with Example 15 @4 μgml ([5]; with Example 15 at 4 μg/ml): >32 mg/L | MIC ATB combined with Example 16 @4 μg/ml ([5]; with Example 16 at 4 μg/ml): <0.031 mg/L | MIC ([5]; Klebsiella pneumoniae, antibiotic alone, read-out: MIC ATB alone): > 32 mg/L | MIC ATB combined with Example 1 @8 μg/ml ([6]; with Example 1 @8 μg/ml): 0.25 mg/L | MIC ATB combined with Example 1 @8 μg/ml ([6]; with Example 1 at 8 μg/ml): 0.25 mg/L | MIC ATB combined with Example 7 @8 μgml ([6]; with Example 7 at 8 μg/ml): 0.125 mg/L | MIC ATB combined with Example 9 @4 μg/ml ([6]; with Example 9 @4 μg/ml): <0.031 mg/L | MIC ATB combined with Example 9 @4 μg/ml ([6]; with Example 9 at 4 μg/ml): <0.031 mg/L | MIC ATB combined with Example 11 @8 μg/ml ([6]; with Example 11 at 8 μg/ml): <0.031 mg/L | MIC ATB combined with Example 12 @8 μg/ml ([6]; with Example 12 at 8 μg/ml): <0.031 mg/L
